Results from patent US20130060020A1, “Compounds useful for treating neurodegenerative disorders” (Satori Pharmaceuticals, Inc., priority 2011, published 2013).
Where two headings read alike, the source gives them in different places.

What was measured:
Format in all cases: cell-based
Aβ-42 = Aβ-42 MSD 3-plex ELISA, conditioned media of 2B7 cells; conditions: Homo sapiens, 5 hours treatment
Description: (§1) Assays were conducted to determine the ability of a Compound of Formula I to modulate […], and Aβ-38.
(§2) Plates with capture antibodies were blocked for 1-2 hours at room temperature with 150 μL of the manufactures blocking reagent.
(§3) Cultured 2B7 cells in 96 well plate with 250 μL of media per well until confluent;
(§4) Prepared serial dilutions of compounds in DMSO at 100× the final desired concentration;
(§5) Washed wells with 2B7 cells 1× with 250 μL of media;
(§6) Diluted DMSO stocks 1:100 into media: • Added 250 μL of media containing compounds (1% DMSO) to wells with 2B7 cells for 5 hours at 37° C.
(§7) ELISA Sample Prep: • Diluted conditioned media: 1 part media with 1% DMSO and 1 part blocking buffer; • 150 μL of the 250 μL of conditioned media were used.
(§8) Prepared per manufacturer's protocol (see above). • Seven point standard curve samples were prepared that contained Aβ-42, Aβ-40, and Aβ-38. The highest concentration of Aβ-42 and Aβ-38 was 3,000 pg/mL and the highest concentration of Aβ-40 was 10,000 pg/mL. Subsequent serial dilutions were 1:3 and the final composition of each sample was 1 part blocking buffer and 1 part cell medium containing 1% DMSO.
(§9) Overnight Sample Incubation: • Blocked plates are washed 5× with MSD wash buffer with a plate washer; • […] and blocker G reagent in MSD blocking solution was added; • 25 μL of samples (1 part conditioned media containing 1% DMSO and 1 part MSD blocking buffer) were then added; • Plates were incubated overnight at 4 degrees C. or 2 hours at room temperature.
(§10) Final Wash and Readout: • Washed wells 5× with MSD wash buffer; • Added 150 μL 2×MSD read buffer; • Read with MSD imager.
(§11) Aβ peptide levels for each peptide were calculated from the standard curve using the MSD software provided with the MSD 2400 Imager. Percent vehicle values for each compound dosage were then calculated and fit to a 4 parameter curve generating IC50 values.
(§12) Conditioned media from 2B7 cells (Mayo) was collected after 5 hours of treatment and diluted with 1 volume of Meso Scale Discovery (MSD, Gaithersburg Md.) blocking buffer (1% BSA in MSD wash buffer). For total Aβ measurements, standard-bind, multi-array single spot 96 well MSD ELISA plates were coated with unlabeled 4G8 capture antibody (Covance, Princeton, N.J.) overnight at 4° C. and then blocked with 5% BSA in MSD wash buffer for 1 hour at room temperature with orbital shaking Diluted 2B7 conditioned media were added to the blocked in-house total Aβ MSD plates with SULFO-TAG 6E10 antibody (MSD). For Aβ38, 40 and 42 measurements, diluted 2B7 conditioned media were added to blocked human (6E10) Aβ 3-Plex plates (MSD). Total Aβ and Aβ 3-Plex plates were incubated for 2 hours at room temperature with orbital shaking followed by washing and reading according to the manufacturer's instructions (SECTOR® Imager 2400, MSD). Aβ concentrations were converted to percent vehicle values and used to construct dose response curves which were fitted to […] using GraphPad Prism version 5.00 for Windows, GraphPad Software, San Diego Calif. USA.

Aβ-38 = Aβ-38 MSD 3-plex ELISA, conditioned media of 2B7 cells; conditions: Homo sapiens, 5 hours treatment, read-out: Aβ 38 IC50
Description: as §1, §2, §3, §4, §5, §6, §7, §8, §9, §10, §11, §12

Aβ-40 = Aβ-40 MSD 3-plex ELISA, conditioned media of 2B7 cells; conditions: Homo sapiens, 5 hours treatment
Description: as §1, §2, §3, §4, §5, §6, §7, §8, §9, §10, §11, §12

[1] = inflection of dose response curve, read-out: Aβ 42 DR IC50 Inflection

`CCO[C@@H]([C@H]1C[C@@H](C)[C@H]2[C@H](O1)[C@H](O)[C@@]1(C)[C@@H]3CC[C@H]4C(C)(C)[C@@H](O[C@H]5CN(CC6(O)CN(C)C6)CCO5)CC[C@@]45C[C@@]35CC[C@]21C)C(C)(C)O` [Compound I-42] was tested, and the IC50 (Aβ-42; [1]) was < 100 nM, the IC50 (Aβ-42; read-out: Aβ 42 IC50) was < 100 nM and the IC50 (Aβ-38) was 100 to 500 nM. The IC50 (Aβ-40; read-out: Aβ 40 IC50) was 501 to 1000 nM.

In the case of `CCO[C@@H]([C@H]1C[C@@H](C)[C@H]2[C@H](O1)[C@H](O)[C@@]1(C)[C@@H]3CC[C@H]4C(C)(C)[C@@H](O[C@H]5CN(CC6(O)CN(C7CCC7)C6)CCO5)CC[C@@]45C[C@@]35CC[C@]21C)C(C)(C)O` [Compound I-44], the IC50 (Aβ-42; [1]) is reported as < 100 nM, the IC50 (Aβ-42; read-out: Aβ 42 IC50) is reported as < 100 nM and the IC50 (Aβ-38) is reported as 100 to 500 nM. For the same compound, the IC50 (Aβ-40; read-out: Aβ 40 IC50) was 1000 to 5000 nM.

`CCO[C@@H]([C@H]1C[C@@H](C)[C@H]2[C@H](O1)[C@H](O)[C@@]1(C)[C@@H]3CC[C@H]4C(C)(C)[C@@H](O[C@H]5CN(CC6(O)CN(C7COC7)C6)CCO5)CC[C@@]45C[C@@]35CC[C@]21C)C(C)(C)O` [Compound I-45] showed an IC50 (Aβ-42; [1]) of 100 to 500 nM, an IC50 (Aβ-42; read-out: Aβ 42 IC50) of 100 to 500 nM and an IC50 (Aβ-38) of 100 to 500 nM. For the same compound, the IC50 (Aβ-40; read-out: Aβ 40 IC50) was 1000 to 5000 nM.

For `CCO[C@@H]([C@H]1C[C@@H](C)[C@H]2[C@H](O1)[C@H](O)[C@@]1(C)[C@@H]3CC[C@H]4C(C)(C)[C@@H](O[C@H]5CN(CC6(O)CN(CCOC)C6)CCO5)CC[C@@]45C[C@@]35CC[C@]21C)C(C)(C)O` [Compound I-46], the IC50 (Aβ-42; [1]) was < 100 nM, the IC50 (Aβ-42; read-out: Aβ 42 IC50) was < 100 nM and the IC50 (Aβ-38) was 100 to 500 nM. The IC50 (Aβ-40; read-out: Aβ 40 IC50) was 501 to 1000 nM.

`CCO[C@@H]([C@H]1C[C@@H](C)[C@H]2[C@H](O1)[C@H](O)[C@@]1(C)[C@@H]3CC[C@H]4C(C)(C)[C@@H](O[C@H]5CN(CC6(O)CN(CC(C)(C)O)C6)CCO5)CC[C@@]45C[C@@]35CC[C@]21C)C(C)(C)O` [Compound I-47] showed an IC50 (Aβ-42; [1]) of 100 to 500 nM, an IC50 (Aβ-42; read-out: Aβ 42 IC50) of 100 to 500 nM and an IC50 (Aβ-38) of 100 to 500 nM. For the same compound, the IC50 (Aβ-40; read-out: Aβ 40 IC50) was 1000 to 5000 nM.

For `CCO[C@@H]([C@H]1C[C@@H](C)[C@H]2[C@H](O1)[C@H](O)[C@@]1(C)[C@@H]3CC[C@H]4C(C)(C)[C@@H](O[C@H]5CN(CCN(C)C)CCO5)CC[C@@]45C[C@@]35CC[C@]21C)C(C)(C)O` [Compound I-59], the IC50 (Aβ-42; [1]) was 100 to 500 nM, the IC50 (Aβ-42; read-out: Aβ 42 IC50) was 100 to 500 nM and the IC50 (Aβ-38) was 501 to 1000 nM. For the same compound, the IC50 (Aβ-40; read-out: Aβ 40 IC50) was 1000 to 5000 nM.

With `CCO[C@@H]([C@H]1C[C@@H](C)[C@H]2[C@H](O1)[C@H](O)[C@@]1(C)[C@@H]3CC[C@H]4C(C)(C)[C@@H](O[C@H]5CN(CCN6CC(OC)C6)CCO5)CC[C@@]45C[C@@]35CC[C@]21C)C(C)(C)O` [Compound I-62] the IC50 (Aβ-42; [1]) was 100 to 500 nM, the IC50 (Aβ-42; read-out: Aβ 42 IC50) was 100 to 500 nM and the IC50 (Aβ-38) was 501 to 1000 nM. It also gave an IC50 (Aβ-40; read-out: Aβ 40 IC50) of 1000 to 5000 nM.

In the case of `CCO[C@@H]([C@H]1C[C@@H](C)[C@H]2[C@H](O1)[C@H](O)[C@@]1(C)[C@@H]3CC[C@H]4C(C)(C)[C@@H](O[C@H]5CN(CCN6CC(F)C6)CCO5)CC[C@@]45C[C@@]35CC[C@]21C)C(C)(C)O` [Compound I-63], the IC50 (Aβ-42; [1]) is reported as 100 to 500 nM, the IC50 (Aβ-42; read-out: Aβ 42 IC50) is reported as 100 to 500 nM and the IC50 (Aβ-38) is reported as 501 to 1000 nM. The IC50 (Aβ-40; inflection of dose response curve, read-out: Aβ 40 DR IC50 Inflection) was 1000 to 5000 nM and the IC50 (Aβ-40; read-out: Aβ 40 IC50) was 1000 to 5000 nM.

In the case of `CCO[C@@H]([C@H]1C[C@@H](C)[C@H]2[C@H](O1)[C@H](O)[C@@]1(C)[C@@H]3CC[C@H]4C(C)(C)[C@@H](O[C@H]5CN(CC6(O)CN(CCO)C6)CCO5)CC[C@@]45C[C@@]35CC[C@]21C)C(C)(C)O` [Compound I-69], the IC50 (Aβ-42; [1]) is reported as < 100 nM, the IC50 (Aβ-42; read-out: Aβ 42 IC50) is reported as < 100 nM and the IC50 (Aβ-38) is reported as 100 to 500 nM. The IC50 (Aβ-40; read-out: Aβ 40 IC50) was 501 to 1000 nM.

`CCO[C@@H]([C@H]1C[C@@H](C)[C@H]2[C@H](O1)[C@H](O)[C@@]1(C)[C@@H]3CC[C@H]4C(C)(C)[C@@H](O[C@H]5CN(CC6CN(C(CO)CO)C6)CCO5)CC[C@@]45C[C@@]35CC[C@]21C)C(C)(C)O` [Compound I-73] was tested, and the IC50 (Aβ-42; [1]) was 100 to 500 nM, the IC50 (Aβ-42; read-out: Aβ 42 IC50) was 100 to 500 nM and the IC50 (Aβ-38) was 100 to 500 nM. It also gave an IC50 (Aβ-40; read-out: Aβ 40 IC50) of 1000 to 5000 nM.
